Data reported in patent US20160310581A1, “ADAM10 INHIBITION TO TREAT FRAGILE X SYNDROME” (VIB VZW, priority 2013, published 2016).
Entries after “also recorded” stand apart in the source; their conditions may differ.

What was measured:
[1] = test system: mGluR-dependent LTD; test: DHPG-induced mGluR-LTD, fEPSP recording in hippocampal slices; set-up: species or system mouse; details: for LTD of fEPSPs, % of baseline: 240 min; for effect on enhanced mGluR-LTD: Fmr1 KO mice, slices 24 h after peptide treatment; for effect on the ability of DHPG to elicit LTD: WT slices/mice, compared with untreated control
Method: Electrophysiology. Animals were euthanized by decapitation, and the right hippocampus was rapidly dissected out into ice-cold (4° C.) artificial cerebrospinal fluid (ACSF) and saturated with carbogen (95% O2/5% CO2). The ACSF consisted of (in mM): 124 NaCl, 4.9 KCl, 24.6 NaHCO3, 1.20 KH2PO4, 2.0 CaCl2, 2.0 MgCl2, and 10.0 glucose, pH 7.4. Transverse slices (400 μm thick) were prepared from the dorsal area of the hippocampus with a tissue chopper and were placed into a submerged-type chamber; samples were kept at 33° C. and continuously perfused with carbogen saturated ACSF at a flow-rate of 2.2 ml/min. After 90 min of incubation, one slice was arbitrarily selected, and a tungsten electrode was placed in the CA1 stratum radiatum. Field excitatory postsynaptic potentials (fEPSPs) were recorded by placing a glass electrode (filled with ACSF, 3-7 MΩ) in the stratum radiatum opposite the stimulating electrode. The time course of the field EPSP was measured as the descending slope function for all sets of experiments. After input/output curves had been established, the stimulation strength was adjusted to elicit a fEPSP-slope of 35% of the maximum and kept constant throughout the experiment. During the baseline recording, 3 single stimuli (0.1 ms pulse width; 10 s interval) were measured every 5 min. The mGluR mediated LTD was induced by a bath application of 30 μM S-DHPG [(S)-3-5-dihydroxy-phenyl glycine; Abcam Chemicals Ltd., Bristol UK] for 15 min (Tambuyzer et al., 2013). During the chemical induction, evoked responses were monitored at 1, 4, 7 and 10 min and then every 5 min until the end of the experiment. All studies were conducted with the experimenter blinded to the treatment regime.

[2] = test system: group I metabotropic glutamate receptors (mGluR); details: DHPG 100 μM, 5 min
Method: Neuronal culture preparation and stimulation. Mouse primary cortical neurons (E15) were prepared as described (Ferrari et al., 2007). Neurons were treated with the mGluRI agonist DHPG (100 uM) for 5 min as described in Napoli et al., 2008.
Immunoprecipitation and RT-PCR. Mouse brains were lysed and the supernatant was used for the IP according to standardized protocol (Napoli et al., 2008). FMRP antibody or purified rabbit IgGs were incubated with the Protein A Sepharose beads and with brain extract or cells for 1 hr at 4° C. After incubation with the extracts RNA was extracted (Phenol/Chloroform) and precipitated in 2.5 v ethanol. First-strand synthesis was achieved using p(dN)6 and 100 U of Superscript III (Invitrogen) and PCR was performed with GoTaq (Promega), according to the manufacturer's instructions. We used specific oligonucleotides to amplify αCaMKII, App, Adam10, Adam9, Adam17, Cyp46, BC200, D2DR. When RTqPCR was used to quantify immunoprecipitated mRNA, the relative mRNA level in the immunoprecipitation samples was calculated as follows: 2^−[DCp(Ip)−DCp(IgG)]=2^−DDCp, where DCp equals Cp(IP or IgG)-Cp(Input).
Western Blot. Standard methodologies were used. 5-20 μg of total lysate or synaptoneurosomes were separated by SDS-PAGE electrophoresis and blotted on a PVDF membrane (Millipore). […] Further quantification was performed upon Coomassie staining of the membranes.

[3] = target: ADAM10/SAP97 interaction (Mus musculus, UniProt Q811D0); details: Marcello et al., 2007; cited from earlier work
ADAM10/SAP97 interaction, sequence (Q811D0 whole entry): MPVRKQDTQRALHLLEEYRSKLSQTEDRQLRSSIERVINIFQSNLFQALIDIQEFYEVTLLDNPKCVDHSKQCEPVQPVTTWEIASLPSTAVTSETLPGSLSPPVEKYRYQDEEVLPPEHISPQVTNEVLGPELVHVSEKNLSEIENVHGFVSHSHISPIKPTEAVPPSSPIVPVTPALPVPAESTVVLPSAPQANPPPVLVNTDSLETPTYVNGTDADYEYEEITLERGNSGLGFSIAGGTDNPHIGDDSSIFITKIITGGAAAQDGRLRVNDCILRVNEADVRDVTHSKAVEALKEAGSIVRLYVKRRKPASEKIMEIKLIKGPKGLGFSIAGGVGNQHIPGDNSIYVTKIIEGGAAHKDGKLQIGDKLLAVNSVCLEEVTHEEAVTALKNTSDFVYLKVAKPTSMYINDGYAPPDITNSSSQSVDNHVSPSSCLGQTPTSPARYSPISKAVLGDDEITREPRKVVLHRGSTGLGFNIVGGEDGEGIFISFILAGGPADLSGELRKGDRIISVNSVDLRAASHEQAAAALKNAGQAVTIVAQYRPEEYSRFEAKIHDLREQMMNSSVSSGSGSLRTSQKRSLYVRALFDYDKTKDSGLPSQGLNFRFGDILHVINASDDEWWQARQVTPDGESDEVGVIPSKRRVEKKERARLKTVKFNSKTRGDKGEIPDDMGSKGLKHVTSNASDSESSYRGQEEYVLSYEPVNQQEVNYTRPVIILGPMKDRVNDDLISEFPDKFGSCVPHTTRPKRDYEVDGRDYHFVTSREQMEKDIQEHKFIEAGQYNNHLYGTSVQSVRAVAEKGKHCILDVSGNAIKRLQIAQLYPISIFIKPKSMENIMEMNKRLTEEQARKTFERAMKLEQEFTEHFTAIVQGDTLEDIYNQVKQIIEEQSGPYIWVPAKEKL

[4] = test system: Fmr1 KO mice; test: Behavioral tests: open field (hyperactivity) and T-maze (working memory); type: in vivo, mouse; details: P24-25
Method: Behavioral tests. All behavioral experiments were performed with P24-25 male mice and blind to the genotype and treatment. We used a minimum of 9 animals per genotype and treatment. Mice were habituated to their new environment for 3 days and tests were conducted during the light phase of their activity cycle. Health and weight of the mice were recorded routinely during the whole period of testing.
Open-field exploration was tested in 50 cm×50 cm×30 cm (w×l×h) square arena illuminated by indirect light. Animals were dark adapted for 30 min and placed in the arena for 10 min each. Movements of the mice in the arena were video-tracked for 10 min and the images were transmitted to a PC equipped with ANY-maze™ Video Tracking System software (Stoelting Co., IL, USA).
Spatial working memory was evaluated in a delayed nonmatching alternation test using an elevated open T-shaped maze made of dark grey plastic. The maze was composed of three 50 cm×7 cm×4 cm (l×w×h) arms elevated 25 cm above the ground. Behavior was registered with a PC-interfaced camera and analyzed with ANY-maze™ Video Tracking System software (Stoelting Co., IL, USA). The mouse was subjected to two trials. During the exploration trial, one of the horizontal T-maze arms (novel arm) was blocked with a 10 cm high door and the mouse was placed into the start arm to explore freely the start and familiar arms for 5 min. […]

[5] = Marcello et al., 2007; cited from earlier work
[6] = test system: dendritic spines of Fmr1 KO mice; test: Morphological analysis of dendritic spines in vivo (diolistic DiI labelling); set-up: species or system mouse; details: 3 nmol/g i.p., 24 h, hippocampal sections, vs TAT-Ala Fmr1 KO mice
Method: Morphological analysis. Wild type and Fmr1 KO mice received an intraperitoneal injection with either TAT-Pro or TAT-Ala peptides (3 nmol/g; 14-d-old mice; 8 mice/group). After 24 h, the mice were deeply anaesthetised with an intraperitoneal injection 0.54 mg/g Avertin and then perfused with ice-cold 4% PFA in 0.1M phosphate buffer (PB; 61.2 mM Na2HPO4, 23.2 mM NaH2PO4.H20, pH 7.4). Brains were removed and sectioned in 200 μm thick transverse slices containing both cortex and hippocampus using a Vibratome (Vibratome). Slices were equilibrated in PBS at 4° C. before applying the Dil-coated particles using a diolistic gene-gun system (Bio-Rad laboratories, Italy). 15 min after application, slices were fixed with 4% PFA in 0.1M PB (2 hours) and kept in PB O/N before mounting. Images of Dil-labelled neurons in the hippocampus and cortex were acquired using Zeiss Confocal LSM510 Meta system with 63× objective and a sequential acquisition setting at 1024×1024 pixels resolution. For each image three to four 0.5 μm sections were acquired and z-projection was obtained. Morphological analysis of dendritic spines was performed using freely available ImageJ 1.42q software (Wayne Rasband National Institutes of Health, USA), and spine length, head width and neck width were measured.

[7] = test system: ADAM10; test: sAPP release into medium of cultured cortical neurons (western blot); type: cell-based, mouse; details: Fmr1 KO cortical neurons
Method: Neuronal culture preparation and stimulation.
(§1) Western Blot. Standard methodologies were used. […] Membranes were incubated using specific antibodies. […] 5 (Molecular Dynamics).
Peptide treatment. […] P20 mice were given intraperitoneal injections of the two peptides (3 nmol/g) and fractionation performed after 24 hrs. Experiment was conducted on WT and KO littermate mice.

[8] = test system: ADAM10; test: sAPPα levels in brain after intraperitoneal peptide injection (brain fractionation, western blot); type: in vivo, mouse; details: Fmr1 KO mice; single i.p. injection 3 nmol/g, 24 h; vs TAT-Ala treated Fmr1 KO mice
Method: as §1
Brain fractionation. Half brain was homogenized in STE buffer (Sucrose 0.32 M, 5 mMTris HCl pH 7.4, 1 mM EDTA, PSMF 0.1 mM, 10 μl ml^−1 Protease inhibitor cocktail (PIC, Sigma). The homogenized tissue was centrifuged at 800 g for 10 min to pull down nuclei. The resulting supernatant was then centrifuged at 55000 rpm 1 h. The supernatant (S1) was collected while the pellet was dissolved in 1% Triton STE Buffer and centrifuged at 55.000 rpm (TLX) for 1 hr. The supernatant is collected (S2) and the final pellet homogenized in SDS Laemmli buffer 1× (Triton-insoluble fraction, P1).
Peptide treatment. Specific (TAT-PRO) or control (TAT-ALA) peptides (10 μM) were added to the media of DIV14 WT and KO cultured neuron and the release of sAPP was monitored by WB after 24 h. P20 mice were given intraperitoneal injections of the two peptides (3 nmol/g) and fractionation performed after 24 hrs. Experiment was conducted on WT and KO littermate mice.

## N[C@H](C(=O)O)c1cc(O)cc(O)c1 [DHPG, (S)-3-5-dihydroxy-phenyl glycine]
[1]; Fmr1 KO mice slices, DHPG 30 μM, 15 min
  LTD of fEPSPs, % of baseline: 28±3%
[1]; WT slices, DHPG bath application 30 μM, 15 min
  LTD of fEPSPs, % of baseline: 53±9%
[2]; primary cortical neurons DIV14
  expression of APP: induced an increase
[2]; primary cortical neurons
  amount of App mRNA associated with FMRP: reduced by threefold

## TAT-Pro: Cell-permeable anti-ADAM10 peptide YGRKKRRQRRRPKLPPPKPLPGTLKRRRPPQP (SEQ ID NO:1): 11 aa Tat transporter sequence linked to 21 aa ADAM10 proline rich domains (Tat-Pro ADAM10 709-729 peptide)
[3]
  ADAM10/SAP97 interaction: interferes with ADAM10/SAP97 interaction
[4]
  behavioural deficits (open field hyperactivity, T-maze working memory): partially ameliorates the behavioural deficits
[1]; DHPG 30 μM, 15 min, listed as Tat-Pro
  effect on enhanced mGluR-LTD: prevents mGluR-LTD
[1]; DHPG 30 μM, 15 min, listed as Tat-Pro ADAM10^709-729
  effect on enhanced mGluR-LTD: sufficient to prevent the enhanced LTD
[1]; WT slices, 24 h after peptide treatment, DHPG 30 μM, 15 min
  fEPSP after DHPG-induced LTD (% of baseline): 65±8%
[1]; listed as Tat-Pro
  effect on the ability of DHPG to elicit LTD: does not impact LTD
[1]; listed as Tat-Pro ADAM10^709-729
  effect on the ability of DHPG to elicit LTD: no detectable effect
[5]
  blood-brain barrier crossing: crosses the blood-brain barrier
[6]
  spines density: decreases spines density
  spines length: significantly increases
  spines width: significantly increases
[7]; peptide 10 μM, 1 h, compared to TAT-Ala exposed neurons
  sAPP release in the medium: significantly decreases sAPP release; also recorded: reduces sAPP release
[8]
  sAPPα levels in brain: significant reduction of sAPPα levels

## TIMP-1: tissue inhibitor of metalloproteinase-1, an inhibitor of metalloproteinases
[7]; TIMP-1 15 nM for 4 h
  sAPP release in the medium: significantly reduces sAPP release
